Test results: patent US10258595B2, “Pharmaceutical formulation for histone deacetylase inhibitors” (TetraLogic Shape UK Ltd, priority 2010, dated 2019)
Where two headings read alike, the source gives them in different places.

How the values were obtained:
[1] = Description: The method has historic precedent for accurately predicting in vivo percutaneous absorption kinetics.
To assure the integrity of each skin section, its permeability to tritiated water was determined before application of the test products.

[2] = Degradation of compound (II) in neutral ethanol; type: physicochemical; settings: room temperature, 24 hours
[3] = Saturation solubility of compound (II) in the gel formulation; type: physicochemical; settings: acidified nonaqueous gel, refrigerated storage (2-8° C.)
[4] = Exposure of gels to laboratory light; type: physicochemical; settings: exposure to laboratory light for up to five days
[5] = skin dosed with compound (II) formulations

COC(=O)c1ccc(O)cc1 [Methylparaben]
presence of degradation products in the samples [1, 5]: present in the majority of the samples

O=C(O)c1ccc(O)cc1 [4-OH Benzoic acid]
presence of degradation products in the samples [1, 5]: present in the majority of the samples

O=C(O)CCCCCCC(=O)NO [Compound (III)]
presence of degradation products in the samples [1]: present in the majority of the samples

COC(=O)c1ccc(OC(=O)CCCCCCC(=O)NO)cc1 [Compound (II)]
degradation of compound (II) [2]: approximately 50% | formulation's saturation solubility for compound (II) [3]: approximately 1.6 % w/w | effect of light on assay values for compound (II) [4]: did not significantly affect | detectable compound (II) found in the epidermis ([1]; human, 24 h, pH 6): 0.3-0.9% | detectable compound (II) found in the surface wash ([1]; human, 24 h, pH 6): 20-69%
